Reference: US7892581B2, “Compositions and methods for protection of harvested fruits from decay” (Gavish-Galilee Bio Applications Ltd., priority 2005, dated 2011)

Assay: Release profile of marker components into vapor phase (headspace GC)
Format: physicochemical
Conditions: for Time to saturation of the vapor phase: release from essential oil on filter paper, sealed vial, 20° C.; for Concentration in the vapor phase: Thyme oil, within 3 hours
Experimental: The profile of release of essential oils was determined by analyses using Gas Chromatograph HP6890 Series GC-System (FID) coupled with HP 7694 Headspace sampler, equipped with column HP-5 Trace Analysis (5% PH Me Siloxane) of volume 30 m×0.25 mm×0.25 μm, at ambient temperature. The following model system was developed and calibrated: filter paper (Whatman No. 1) strips absorbed with appropriate volume of essential oil to achieve desired concentrations, i.e., similar to those used for in-vivo experiments, were placed in 20 ml and 100 ml vials. The vials were hermetically sealed and marked to indicate the time course of vaporization (1, 3, 14 and 24 hours). These vials were kept in the dark at a temperature of 20° C. until their gas chromatography analyses.
GC FID analysis was applied to determine the release profile into the vapor phase of marker individual components during a 24 hour period. […] For all markers tested, saturation was achieved within 3 hours.

| SMILES | Time to saturation of the vapor phase [h] | Concentration in the vapor phase [%] |
| --- | --- | --- |
| C=CCN=C=S [allyl isothiocyanate] | ~1.5 | – |
| CC(C)=CCCC(C)CC=O (stereo not shown) [citronellal] | ~3.0 | – |
| Cc1ccc(C(C)C)cc1 [p-cymene] | – | ~56 |
| Cc1ccc(C(C)C)c(O)c1 [thymol] | – | ~1.2 |
